What was measured:
[1] = system: choroidal neovascularization (CNV); assay: mouse laser-induced CNV model, fundus fluorescein angiography; format: in vivo; conditions: two intravitreal doses (14 days before and 1 day after laser) vs saline; p=0.0290 single lesion analysis
From the text: Wet age-related macular degeneration (wet AMD) is a leading cause of blindness in the U.S. and globally, requiring effective treatments, particularly with the use of drugs or treatments that allow sustained management of the disease. Choroidal neovascularization (CNV), or pathologic angiogenesis, is the cause of the visual loss that occurs in wet AMD. Therefore, sorafenib is also a possible treatment for wet AMD, but the effect of the drug when delivered in a liquid form is brief. It has been shown that optimized crystal formulations of sorafenib providing sustained release have the potential to work over a longer period of time. As shown herein, the experiments tested the effect of intravitreal administration of crystal sorafenib vs. vehicle, in saline, of sorafenib in a mouse laser-induced CNV model. FIG. 5 depicts a timeline of an experimental procedure, in accordance with the present disclosure. Crystalline sorafenib, as described herein, was administered to two batches of mice. In the first batch of mice, 16 mice were injected, 14 days before a laser treatment and 1 day after laser treatment. In the second batch of mice, 13 mice were injected 7 days before laser treatment. FIGS. 6A-6D depict charts of fluorescent intensity as measured with the use of fundus fluorescein angiography (FFA), according to the present disclosure. […]

[2] = system: alpha Smooth Muscle actin (aSMact); assay: immunofluorescent staining of tumors: aSMact; format: in vivo, BALB/c mice; conditions: single SC injection of 3 mg or 10 mg crystals, compared to daily bolus
Description: To confirm the effects seen at the level of RNA, immunofluorescent staining of excised tumor samples that were in parallel fixed with paraformaldehyde and embedded in paraffin was performed. […] Co-localization of CD31 with aSMact was, as expected, not linked in crystal sorafenib-treated tumors, where CD31 reduction was more extensive than with daily, bolus sorafenib.
Immunofluorescence imaging was used to determine anti-angiogenic drug efficacy. Tumor tissues were retrieved from mice and fixed overnight using 4% paraformaldehyde at 4° C. After fixation, retrieved tissue samples were moved to 70% ethanol. Samples were then processed for paraffin embedding, sectioning and staining. […] Next, tissues were incubated for 1 hour in an immunostaining cocktail solution consisting of NucBlue (Thermo), specific marker probes (1:200 dilution) anti-CD31 (Cat#DIA-310, HistoBioTec) and anti-alphaSmoothMuscle actin-Cy3 (Sigma) in Dako staining buffer. For CD31, a goat anti-rat alexa-fluor647 secondary antibody was also used (1:400). After staining, samples were rinsed again with 1X PBS three times prior to slides being cover slipped with Pro-long anti-fade Gold (Thermo). […] For stain quantification, images were converted into 8-bit image files, a background threshold was determined using NIH ImageJ, and then all images were processed using an NIH ImageJ macro to quantify the area of positive stain. […]

[3] = crystal stability in aqueous solutions (brightfield microscopy); format: physicochemical; conditions: 1-2 mg crystal, 300 μL saline, RPMI-1640 media, 1X PBS or saline with 0.1% SDS; solutions replaced every hour; after 36 hours
From the text: After crystals visibly stopped precipitating or growing, the vessel was submerged in an ultrasonic water bath for 10-30 seconds to dislodge crystals from the vessel sidewall and break them into more a uniform size distributions, either smaller fines, for example 50 μm, or between 150-200 μm, as measured by brightfield and scanning electron microscopy, shown in FIGS. 2A-2B. Resultant product was then removed from the supernatant mother solution, dried, weighed, and stored for later use. On average, yielded crystal was approximately 40% of the starting powder. Furthermore, methods exist to quantify solubilized material, typically using optics to identify changes in light transmittance, and enabled testing of crystal stability in a range of aqueous solutions. To do so, between 1-2 mg of crystal was placed in a 96-well plate with 300 μL of DMSO, saline, RPMI-1640 media, 1X phosphate buffer solution (PBS), or saline with 0.1% sodium dodecyl sulfate (SDS). […] To simulate cumulative drug release over time, all 3 mL supernatant volumes were removed and replaced with completely fresh release media at desired times of 1 hr, 4 hr, 6 hr, 8 hr, 10 hr, 1 day, 2 days, 5 days, 7 days, 10 days and 12 days, and 200 μL aliquots were measured in individual wells of a 96-well plate at 266 nm to determine solubilize sorafenib release, as shown in FIG. 2D.

[4] = body weight of treated tumor-bearing mice; format: in vivo, BALB/c mice; conditions: crystals in ~100-200 μl saline, IP or SC, any site or dose tested
Description: However, due to the highly hydrophobic nature of sorafenib, its daily 25 mg/kg bolus dosing regimen required regular used of a solvent solution made up of ˜60% of the strong organic solvent dimethylsulfoxide (DMSO). […] In stark contrast, no DMSO was required for delivery of sorafenib crystals, for which instead simply utilized ˜100-200 μl of saline to inject into the desired IP or SC tissue sites.
Once tumors had reached an average volume of ˜220-250 mm^3, mice were administered either subcutaneously or intraperitoneally with 3 or 10 mg of crystalline sorafenib, diameter ˜150-200 μm, suspended in 200 μL of sterile saline using an 18 g needle. As a control, mice (n=4) were dosed with sorafenib dissolved at a concentration of 4 mg/mL in a solution of 65% DMSO (remainder DPBS). Mice were dosed either subcutaneously or intraperitoneally with a bolus of 25 mg drug per kg of bodyweight (BW), daily. As a secondary control, mice were dosed with the 65% DMSO/PBS vehicle to monitor changes in body score based on the vehicle alone.

## CNC(=O)c1cc(Oc2ccc(NC(=O)Nc3ccc(Cl)c(C(F)(F)F)c3)cc2)ccn1 [crystalline sorafenib, sorafenib]
[1]
  CNV (FFA fluorescent intensity): appears to reduce CNV
[2]
  tumor aSMact levels (immunofluorescence): reduction is less significant
[3]
  difference in crystal size by brightfield microscopy: no noticeable difference
[4]
  effect on bodyweight: did not negatively affect bodyweight

From US20240366577A1, “CONTROLLED LONG-TERM DRUG DELIVERY AND METHODS THEREOF” (THE JOHNS HOPKINS UNIVERSITY, priority 2021, published 2024)
